Tested on: P. falciparum Dd2 strain
Type: cell-based, Plasmodium falciparum
Conditions: single dose, 72 h in vitro treatment; Fig. 1B; normalized to non-treated cultures

## poly-L-glutamate
  parasite growth inhibition (in words): parasite growth inhibition was not observed
